Source: ChEMBL document CHEMBL4602644, “Synthesis of PJOV56, a new quinoxalinyl-hydrazone derivative able to induce autophagy and apoptosis in colorectal cancer cells, and related compounds” (Bioorg Med Chem Lett, 2020)
pIC50: −log10 of the molar value. The source made the active and inactive calls. The rule behind the calls is not given here.

What was measured:
SF-295 = assay: Cytotoxicity against human SF295 cells assessed as reduction in cell viability measured after 72 hrs by MTT assay; type: functional, cell-based; settings: SF-295, 72 h
L929 = assay: Cytotoxicity against mouse L929 cells assessed as reduction in cell viability measured after 72 hrs by MTT assay; type: cell-based; settings: L929, 72 h
HCT-116 [1] = assay: Induction of morphological changes in human HCT116 cells assessed as bleb formation at 0.2 uM measured after 48 hrs by propidium iodide staining based flow cytometry; type: functional, cell-based
HCT-116 [2] = assay: Induction of morphological changes in human HCT116 cells assessed as cell pyknosis at 0.2 uM measured after 48 hrs by propidium iodide staining based flow cytometry; type: functional
HCT-116 [3] = assay: Induction of DNA fragmentation in human HCT116 cells at 0.2 uM measured after 48 hrs by propidium iodide staining based flow cytometry relative to control; type: functional
HCT-116 [4] = assay: Cell cycle arrest in human HCT116 cells assessed as accumulation at G0/G1 phase at 0.2 uM measured after 48 hrs by propidium iodide staining based flow cytometry (reference value: 41.67 %); type: functional
HCT-116 [5] = assay: Cell cycle arrest in human HCT116 cells assessed as accumulation at S phase at 0.2 uM measured after 48 hrs by propidium iodide staining based flow cytometry (reference value: 33.29 %); type: functional
HCT-116 [6] = assay: Cell cycle arrest in human HCT116 cells assessed as accumulation at G2/M phase at 0.2 uM measured after 48 hrs by propidium iodide staining based flow cytometry (reference value: 24.98 %); type: functional
HL-60 = assay: Cytotoxicity against human HL60 cells assessed as cell growth inhibition at 5 ug/ml measured after 72 hrs by MTT assay relative to control; type: functional; settings: HL-60, 72 h, read-out: GI
HCT-116 [7] = assay: Cytotoxicity against human HCT116 cells assessed as cell growth inhibition at 5 ug/ml measured after 72 hrs by MTT assay relative to control; type: functional; settings: HCT-116, 72 h, read-out: GI
OVCAR-8 = assay: Cytotoxicity against human OVCAR8 cells assessed as cell growth inhibition at 5 ug/ml measured after 72 hrs by MTT assay relative to control; type: functional; settings: OVCAR-8, 72 h, read-out: GI
HCT-116 [8] = assay: Cell cycle arrest in human HCT116 cells assessed as accumulation at G0/G1 phase at 0.1 uM measured after 48 hrs by propidium iodide staining based flow cytometry (reference value: 41.67 %); type: functional
HCT-116 [9] = assay: Cell cycle arrest in human HCT116 cells assessed as accumulation at S phase at 0.1 uM measured after 48 hrs by propidium iodide staining based flow cytometry (reference value: 33.29 %); type: functional
HCT-116 [10] = assay: Cell cycle arrest in human HCT116 cells assessed as accumulation at G2/M phase at 0.1 uM measured after 48 hrs by propidium iodide staining based flow cytometry (reference value: 24.98 %); type: functional

Compound	inhibition of growth at 5 µg/mL (HL-60) [%]	inhibition of growth at 5 µg/mL (HCT-116 [7]) [%]	inhibition of growth at 5 µg/mL (OVCAR-8) [%]	also measured
COc1cccc2c1C(=O)c1c(O)c3c(c(O)c1C2=O)C[C@@](O)(C(=O)CO)C[C@@H]3O[C@H]1C[C@H](N)[C@H](O)[C@H](C)O1 [DOXORUBICIN]	–	–	–	pIC50 (SF-295): 6.60; pIC50 (L929): 6.18; Activity (HCT-116 [1]): Active; Activity (HCT-116 [2]): Active; Activity (HCT-116 [3]): 6.02%; Activity (HCT-116 [4]): 16.48%; Activity (HCT-116 [5]): 22.72%; Activity (HCT-116 [6]): 60.53%
C(=N\Nc1cnc2ccccc2n1)/c1ccco1	0	9.01	3.56	–
C(=N\Nc1cnc2ccccc2n1)/c1cnc[nH]1	98.8	77.2	57.4	–
O=[N+]([O-])c1ccc(/C=N/Nc2cnc3ccccc3n2)s1	0	0.03	0	–
C(=N\Nc1cnc2ccccc2n1)/c1ccncc1	0	33.7	14.9	–
C(=N\Nc1cnc2ccccc2n1)/c1ccc[nH]1	96.3	54.3	52.3	–
C(=N\Nc1cnc2ccccc2n1)/c1cccnc1	0	18.8	10.2	–
CC(=O)O[C@H]1C(=O)[C@@]2(C)[C@H]([C@H](OC(=O)c3ccccc3)[C@]3(O)C[C@H](OC(=O)[C@H](O)[C@@H](NC(=O)c4ccccc4)c4ccccc4)C(C)=C1C3(C)C)[C@]1(OC(C)=O)CO[C@@H]1C[C@@H]2O [PACLITAXEL]	–	–	–	Activity (HCT-116 [8]): 13.83%; Activity (HCT-116 [9]): 25.09%; Activity (HCT-116 [10]): 61.69%
C(=N\Nc1cnc2ccccc2n1)/c1cccs1	19.7	21	0	–
O=[N+]([O-])c1ccc(/C=N/Nc2cnc3ccccc3n2)o1	12.2	27.1	3.95	–
